This is an account of results in patent US20230116978A1, “METHOD FOR LIBERATING INTRACELLULAR MATERIAL FROM PLANT CELLS” (Deerland Enzymes, Inc., priority 2021, published 2023).

A short description of data set [1]: Total antioxidant capacity, Folin-Ciocalteu assay (total phenolics assay). The following applies: for Total antioxidant capacity: Folin-Ciocalteu, gallic acid reference. The method, then:
Total antioxidant capacity was tested in the Folin-Ciocalteu assay (also known as the total phenolics assay). This assay makes use of the Folin-Ciocalteu reagent to measure antioxidants. The assay is performed by adding the Folin-Ciocalteu's phenol reagent to serial dilutions of extract, thoroughly mixing, and incubating for 5 minutes. Sodium carbonate is added, starting a chemical reaction producing a color. The reaction is allowed to continue for 30 minutes at 37° C. Optical absorbance is measured at 765 nm in a colorimetric plate reader. Gallic acid is used as a reference standard, and the data reported in Gallic Acid Equivalents per gram product.

The test system of data set [2] is human polymorphonuclear (PMN) cells. The data set is described as follows: ROS formation by inflammatory PMN cells (H2O2-triggered, DCF-DA, flow cytometry). Format: cell-based. The following applies: for effect on ROS formation by PMN cells (anti-/pro-inflammatory), in words: H2O2-triggered ROS. From the text:
In measuring the effect on free radical formation by inflammatory cells, human polymorphonuclear (PMN) cells were used for testing effects of a product on ROS formation. PMN cells constitute approximately 70% of the white blood cells in humans. PMN cells produce high amounts of ROS upon certain inflammatory stimuli. Natural products may affect PMN cell ROS formation by three different mechanisms: 1. […] Triggering an anti-inflammatory cellular signal, leading to reduced ROS formation; 3. Triggering an immune reaction, leading to enhanced ROS formation. The effects of test products were measured by exposing freshly purified human PMN cells to the test products. During the incubation with a test product, any antioxidant compounds able to cross the cell membrane can enter the interior of the PMN cells, and compounds that trigger a signaling event can do so. Then the cells are washed, loaded with the DCF-DA dye, which turns fluorescent upon exposure to ROS. Formation of ROS is triggered by addition of H2O2. The fluorescence intensity of the PMN cells is evaluated by flow cytometry. The low fluorescence intensity of untreated control cells serves as a baseline and PMN cells treated with H2O2 alone serve as a positive control. […] The testing was performed on cells from a healthy donor. […]
On the technique in general: A flow cytometer gives signals particle by particle.

The subject of a further data set is human RBC. The data set is described as follows: Cellular antioxidant protection, CAP-e bioassay. The following applies: for Cellular antioxidant Protection (CAP-e value): human RBC, AAPH oxidation. In kind it is cell-based. The method, then: Cell-based antioxidant protection was measured via a CAP-e bioassay. […] The CAP-e bioassay was specifically designed to work with natural products and ingredients. The red blood cell (RBC) was used as the model cell type as it is an inert cell type, in contrast to other cell types such as PMN cells. The red blood cell-based assay was developed particularly to be able to assess antioxidants from complex natural products in a cell-based system, as well as help interpret subsequent data from more complex cellular models. Freshly purified human RBC are washed repeatedly in physiological saline, and then exposed to the test products. During the incubation with a test product, any antioxidant compounds able to cross the cell membrane can enter the interior of the RBC. Then the RBC are washed to remove compounds that were not absorbed by the cells, and loaded with the DCF-DA dye, which turns fluorescent upon exposure to reactive oxygen species (ROS). Oxidation is triggered by addition of the peroxyl free radical generator AAPH. The fluorescence intensity is evaluated. The low fluorescence intensity of untreated control cells serves as a baseline, and RBC treated with AAPH alone serve as a positive control for maximum oxidative damage. […] Based on the low fluorescence of the untreated control wells, and the high fluorescence of the cell cultures exposed to oxidative damage, the fluorescence intensity in cell cultures treated with test products prior to exposure to oxidative stress is used to calculate the percent inhibition of cellular oxidative stress.

As for `CC1=C(/C=C/C(C)=C/C=C/C(C)=C/C=C/C=C(C)/C=C/C=C(C)/C=C/C2=C(C)C(=O)[C@@H](O)CC2(C)C)C(C)(C)C[C@H](O)C1=O` [Astaxanthin], in data set [1], the Total antioxidant capacity is recorded as 2 mg GAE per gram. The “effect on ROS formation by PMN cells (anti-/pro-inflammatory), in words” value (from here on “effect on ROS formation by PMN cells … in words”) in data set [2] is “less anti-inflammatory capacity than the SOLARPLAST® post-aqueous fraction”.
For the compound `N[C@@H](CCC(=O)N[C@@H](CS)C(=O)NCC(=O)O)C(=O)O` [L-glutathione, reduced], in the data set with human RBC, the “cellular antioxidant protection, comparison in words” value is given as “had more antioxidant capacity than SOLARPLAST®” and the “Cellular antioxidant Protection (CAP-e value)” value is 619 μM GA/gram. Besides, in the data set on human RBC (highest concentration tested), the Cell lysing entry is “Cell lysing occurred”. Moreover, in data set [1], the “total antioxidant capacity, comparison in words” value was “had more antioxidant capacity than SOLARPLAST®” and the Total antioxidant capacity was determined as 153 mg GAE per gram. Besides, in data set [2], the “effect on ROS formation by PMN cells … in words” value is on record as “less anti-inflammatory capacity than the SOLARPLAST® post-aqueous fraction”. The “effect on ROS formation by PMN cells at the highest/higher doses” value in data set [2] (highest or higher doses) is listed as “robust increase in ROS formation”.
Take `Oc1ccc(C=Cc2cc(O)cc(O)c2)cc1` [Resveratrol]: in the data set on human RBC, the “cellular antioxidant protection, comparison in words” value is recorded as “had more antioxidant capacity than SOLARPLAST®” and the “Cellular antioxidant Protection (CAP-e value)” value turned out to be 235 μM GA/gram. The “effect on ROS formation by PMN cells … in words” value in data set [2] is “considerably more anti-inflammatory capabilities than any of the fractions of SOLARPLAST®”.
